Measurements: patent US20250186404A1, “METHODS OF USING A (THIAZOLYL)BENZENESULFONAMIDE DERIVATIVE” (Cyteir Therapeutics, Inc., priority 2023, published 2025)

tested on: Daudi (Burkitt Lymphoma) cells; assay: Intracellular Lactate Accumulation Assay (Lactate-Glo); format: cell-based, human; conditions: Homo sapiens; Daudi cells, 2 h treatment, intracellular lactate accumulation; read-out: LactateGlo EC50
Experimental: Intracellular lactate accumulation after a 2 h treatment with compounds of the present invention was measured in Daudi (Burkitt Lymphoma) cells using the Lactate-Glo Assay (Promega).
Daudi cells were seeded at 7,500 cells per well in 150 μL of growth medium (RPMI-1640 with 2 mM GlutaMAX+10% FBS) in clear, 96-well, flat-bottom microplates, and incubated overnight (37° C., 5% CO2). Compounds of the present invention were added using an INTEGRA VIAFLO 96 (8 point, 3-fold serial dilution, top concentration 1, 10, or 20 μM, 0.4% final DMSO concentration). After a 2 h incubation (37° C., 5% CO2) microplates containing cells were washed twice with 150 μL ice-cold PBS, resuspended in 25 μL ice-cold PBS containing 12.5 μL 0.6N HCl, and placed on a microplate shaker for 5 min to lyse the cells. Following lysis, 12.5 μL 1M Trizma base was added to neutralize the suspension, and microplates were returned to the microplate shaker for 1 min. Plates were sealed and stored at −20° C. until further processing. On the day of the assay, microplates were thawed for 45 min at room temperate and 50 μL Lactate Detection Reagent (prepared as specified by manufacturer) was added to each well. Microplates were placed on a plate shaker for 1 min and incubated at room temperature for 1 h. Luminescence was measured using a BioTek Cytation 5 Multi-Mode Reader. Curve fitting and calculation of EC50 was performed using GraphPad Prism.
In addition, Daudi human lymphoma cells were treated with a titration of Compound 67A for 4 h, then intracellular lactate was measured via LactateGlo (FIG. 2). Compound 67A treatment elevates intracellular lactate (FIGS. 3-5). […] Inhibiting MCT function in glycolytic cancer cells leads to an accumulation of intracellular lactate that impairs glycolysis and inhibits tumor cell growth, thereby making MCTs an attractive target for cancer therapy. Compound 67A inhibits the import of MCT ligands into cells, and induces dose-dependent intracellular lactate accumulation that correlates with cytotoxicity. MCT4 expression inversely correlates with lactate accumulation and the extent of Compound 67A cytotoxicity in cells.

| EC50 | Compound |
| --- | --- |
| > 5000 nM | CNC(=N)Nc1ccc(-c2cnc(C3CCC(NC(=O)OC(C)C)CC3)s2)c(S(=O)(=O)NC(C)(C)C)c1 (stereo not drawn) [Compound 75] |
| > 5000 nM | COC(=O)NC1CCC(c2ncc(-c3ccc(NC(=O)OC(C)C)cc3S(=O)(=O)NC(C)(C)C)s2)CC1 (stereo not drawn) [Compound 76] |
| > 5000 nM | CC(C)OC(=O)Nc1ccc(-c2cnc([C@H]3CC[C@@H](NC(=O)OC(C)C)CC3)s2)c(S(=O)(=O)NC(C)(C)C)c1 [Compound 67B] |
| < 50 nM | CC(C)OC(=O)NC1CCC(c2ncc(-c3ccc(NC(=O)NCc4ccccc4)cc3S(=O)(=O)NC(C)(C)C)s2)CC1 (stereo not drawn) [Compound 62B] |

target: T1, human MCT1 (Homo sapiens, UniProt P53985); assay: MCT1 Transport Inhibition Assay (TPGA uptake, LC-MS/MS); format: cell-based; conditions: MDCK-II cells overexpressing human MCT1, TPGA transport; read-out: BioIVT MCT1 Transporter IC50
T1 construct: host or cells: MDCK-II (canine) cells, transient co-transfection
T1 sequence (P53985 1-500): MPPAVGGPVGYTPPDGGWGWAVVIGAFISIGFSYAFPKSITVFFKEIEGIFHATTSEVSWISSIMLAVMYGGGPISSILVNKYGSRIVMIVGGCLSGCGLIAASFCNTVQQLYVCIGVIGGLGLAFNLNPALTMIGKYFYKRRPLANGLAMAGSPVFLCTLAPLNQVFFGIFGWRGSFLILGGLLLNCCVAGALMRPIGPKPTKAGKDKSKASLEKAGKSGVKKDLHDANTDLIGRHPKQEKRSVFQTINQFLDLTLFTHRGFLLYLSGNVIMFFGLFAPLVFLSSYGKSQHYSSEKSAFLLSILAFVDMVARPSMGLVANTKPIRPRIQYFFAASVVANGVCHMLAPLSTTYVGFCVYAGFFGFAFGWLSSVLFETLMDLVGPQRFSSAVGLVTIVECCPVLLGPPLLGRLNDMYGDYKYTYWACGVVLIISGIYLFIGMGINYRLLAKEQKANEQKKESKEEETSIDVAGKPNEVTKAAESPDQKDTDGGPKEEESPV
T1 sequence (P35613 140-385 partner limits assumed): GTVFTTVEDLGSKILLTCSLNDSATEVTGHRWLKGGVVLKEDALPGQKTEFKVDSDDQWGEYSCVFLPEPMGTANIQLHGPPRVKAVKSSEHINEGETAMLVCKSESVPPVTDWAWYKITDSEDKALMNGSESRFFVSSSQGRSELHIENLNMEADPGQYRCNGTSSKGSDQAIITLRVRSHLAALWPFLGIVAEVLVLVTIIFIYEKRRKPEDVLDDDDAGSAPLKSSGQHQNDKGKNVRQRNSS
Experimental: Inhibition of MCT1 transport after treatment with compounds of the present invention was measured in MDCK-II cells that overexpress human MCT1 by quantifying the transport of 2-Thiophene-glycoxylic acid (TPGA) into cells using LC-MS/MS.
MDCK-II cells are seeded at 60,000 cells per well in growth medium (low-glucose DMEM+10% FBS) in 96-well trans-well membrane plates, and incubated overnight (37° C., 5% CO2). Cells were co-transfected with mammalian expression constructs coding for MCT1 and CD147 at a 2:1 ratio or an empty vector control (GFP) and then incubated for 48 h (37° C., 5% CO2). Cells were washed 3 times with HBSS and cells were preincubated with inhibitors or vehicle control at room temperature in HBSS for 30 min with orbital shaking (60 rpm). HBSS was aspirated from the wells and replaced with HBSS with 25 mM Bis-Tris pH5.5+inhibitor or vehicle control+500 μM TPGA and incubated for 1 min at room temperature with orbital shaking (60 rpm). Both the apical and basolateral side of the trans-well insert were washed 4 times with ice-cold PBS. Cells were lysed with 60 μL of cell extraction solution, and the amount of TPGA in each well was quantified in triplicate by LC-MS/MS. The MCT1-mediated uptake rate was calculated using the following equation: […]
Percent inhibition for each concentration of inhibitor tested was calculated using the following equation: […]
Curves were fit to the calculated percent inhibition for each inhibitor, and the IC50 representing the concentration of inhibitor at which MCT1 is inhibited by 50% was calculated from this curve.
Canine MDCKII cells expressing human MCT1 were treated with a titration of Compound 67A, and import of the MCT1 substrate, 2-TPGA was measured by LC-MS (FIG. 1).

| IC50 | Compound |
| --- | --- |
| 150 to 1000 nM | CC(C)OC(=O)N[C@H]1CC[C@H](c2ncc(-c3ccc(NC(=O)NCc4ccccc4)cc3S(=O)(=O)NC(C)(C)C)s2)CC1 [Compound 62B] |
| 1000 to 5000 nM | CC(C)OC(=O)Nc1ccc(-c2cnc([C@H]3CC[C@@H](NC(=O)OC(C)C)CC3)s2)c(S(=O)(=O)NC(C)(C)C)c1 [Compound 67B] |
